Experiment: xn = mol fraction of the nth substance listed

CCCCCCCC[n+]1ccc2ccccc2c1.O=S(=O)([N-]S(=O)(=O)C(F)(F)F)C(F)(F)F + CCCCO
101 kPa
Conditions	viscosity [mPa·s]
298.15 K, x2 = 0.3134	122.9
298.15 K, x2 = 0.5032	55.19
308.15 K, x2 = 0.3134	71.3
308.15 K, x2 = 0.6915	15.21
318.15 K, x2 = 0.7937	6.33
328.15 K, x2 = 0.1708	45.14
338.15 K, x2 = 0.3134	21.01
338.15 K, x2 = 0.6915	5.91
338.15 K, x2 = 0.7937	3.66

CCCC[P+](CCCC)(CCCC)CCCC.[Br-] + OCCO + O
viscosity [mPa·s], 101.3 kPa
Conditions	x1 = 0.0383, x2 = 0.0767	x1 = 0.06893, x2 = 0.1381	x1 = 0.09557, x2 = 0.1914	x1 = 0.1302, x2 = 0.2608	x1 = 0.1675, x2 = 0.3355	x1 = 0.1968, x2 = 0.3942	x1 = 0.2368, x2 = 0.4742	x1 = 0.2634, x2 = 0.5276	x1 = 0.3054, x2 = 0.6116	x1 = 0.333, x2 = 0.667
293.15 K	4.67	11.5	20.5	35.1	50.8	62	74.1	82.3	105	122
298.15 K	3.8	9.08	16.1	27.2	38.8	48.1	57	64.1	78.1	93.4
303.15 K	3.15	7.34	13	21.7	31	38.2	44.5	49.4	63.7	72.4
308.15 K	2.74	6.11	10.6	17.7	24.9	30.1	35.3	39.5	50.2	56.9
313.15 K	2.35	5.21	8.88	14.4	20.5	24.5	28.3	32.2	39.9	45.3
318.15 K	2.08	4.43	7.33	11.9	16.8	20.1	23.1	26.4	32.4	36.6
323.15 K	1.84	3.8	6.34	10.1	13.9	16.8	19	21.9	26.6	29.9

NCCNCCN + CCCC[n+]1ccn(C)c1.F[B-](F)(F)F
101.3 kPa
Conditions	viscosity [mPa·s]
298.15 K, x2 = 0	5.52
298.15 K, x2 = 0.3995	23.66
298.15 K, x2 = 0.5905	40.1
303.15 K, x2 = 0.2998	14.59
303.15 K, x2 = 0.4992	26.4
303.15 K, x2 = 0.5905	33.6
303.15 K, x2 = 0.6974	44.2
303.15 K, x2 = 0.8948	69.1
308.15 K, x2 = 0.2998	12.47
313.15 K, x2 = 0.1986	7.86
313.15 K, x2 = 0.3995	14.5
313.15 K, x2 = 0.4992	19.06
313.15 K, x2 = 0.6974	30.9
318.15 K, x2 = 0.051	3.95
323.15 K, x2 = 0.2998	8.65
323.15 K, x2 = 0.3995	11.33
323.15 K, x2 = 0.5905	18.26
328.15 K, x2 = 0.2998	7.68
328.15 K, x2 = 0.3995	9.9
328.15 K, x2 = 0.4992	12.63
328.15 K, x2 = 0.6974	19.4
333.15 K, x2 = 0.1986	4.89
333.15 K, x2 = 0.2998	6.68
333.15 K, x2 = 0.4992	11.19
333.15 K, x2 = 0.6974	17.57
333.15 K, x2 = 0.9496	24.5
